Assay results published in ChEMBL document CHEMBL5678807, “A selective jumonji H3K27 demethylase inhibitor modulates the proinflammatory macrophage response” (Nature, 2012).

Legend:
Macrophage [1] = assay: Antiinflammatory activity in human primary macrophages assessed as effect on LPS-induced BMP6 gene expression at 30 uM measured after 2 hrs by RT-PCR array (reference value: 1526 a.u.); type: functional
Macrophage [2] = assay: Antiinflammatory activity in human primary macrophages assessed as effect on LPS-induced FASLG gene expression at 30 uM measured after 2 hrs by RT-PCR array (reference value: 73 a.u.); type: functional
Macrophage [3] = assay: Antiinflammatory activity in human primary macrophages assessed as effect on LPS-induced GDF11 gene expression at 30 uM measured after 2 hrs by RT-PCR array (reference value: 115 a.u.); type: functional
Macrophage [4] = assay: Antiinflammatory activity in human primary macrophages assessed as effect on LPS-induced GDF3 gene expression at 30 uM measured after 2 hrs by RT-PCR array (reference value: 134 a.u.); type: functional
Macrophage [5] = assay: Antiinflammatory activity in human primary macrophages assessed as effect on LPS-induced IFNA8 gene expression at 30 uM measured after 2 hrs by RT-PCR array (reference value: 425 a.u.); type: functional
Macrophage [6] = assay: Antiinflammatory activity in human primary macrophages assessed as effect on LPS-induced IL12A gene expression at 30 uM measured after 2 hrs by RT-PCR array (reference value: 7097 a.u.); type: functional
Macrophage [7] = assay: Antiinflammatory activity in human primary macrophages assessed as effect on LPS-induced IL15 gene expression at 30 uM measured after 2 hrs by RT-PCR array (reference value: 62425 a.u.); type: functional
Macrophage [8] = assay: Antiinflammatory activity in human primary macrophages assessed as effect on LPS-induced IL1A gene expression at 30 uM measured after 2 hrs by RT-PCR array (reference value: 1292761 a.u.); type: functional
Macrophage [9] = assay: Antiinflammatory activity in human primary macrophages assessed as effect on LPS-induced IL8 gene expression at 30 uM measured after 2 hrs by RT-PCR array (reference value: 11155386 a.u.); type: functional
Macrophage [10] = assay: Antiinflammatory activity in human primary macrophages assessed as effect on LPS-induced LTB gene expression at 30 uM measured after 2 hrs by RT-PCR array (reference value: 6025 a.u.); type: functional
Macrophage [11] = assay: Antiinflammatory activity in human primary macrophages assessed as effect on LPS-induced TGFB2 gene expression at 30 uM measured after 2 hrs by RT-PCR array (reference value: 7625 a.u.); type: functional
Macrophage [12] = assay: Antiinflammatory activity in human primary macrophages assessed as effect on LPS-induced TNFSF13B gene expression at 30 uM measured after 2 hrs by RT-PCR array (reference value: 28045 a.u.); type: functional
Macrophage [13] = assay: Cytotoxicity against LPS-induced human primary macrophages assessed as effect on cell viability measured after 4 hrs by WST-1 assay; type: toxicity, cell-based
[14] = biological target: Lysine-specific demethylase 4D (Homo sapiens, UniProt Q6B0I6); assay: Inhibition of human JmjD2d using H3K27(me3) as substrate preincubated for 10 mins followed by substrate addition and measured after 7 mins in presence of alpha-KG by RapidFire Mass Spectrometry
Lysine-specific demethylase 4D, sequence (Q6B0I6 whole entry): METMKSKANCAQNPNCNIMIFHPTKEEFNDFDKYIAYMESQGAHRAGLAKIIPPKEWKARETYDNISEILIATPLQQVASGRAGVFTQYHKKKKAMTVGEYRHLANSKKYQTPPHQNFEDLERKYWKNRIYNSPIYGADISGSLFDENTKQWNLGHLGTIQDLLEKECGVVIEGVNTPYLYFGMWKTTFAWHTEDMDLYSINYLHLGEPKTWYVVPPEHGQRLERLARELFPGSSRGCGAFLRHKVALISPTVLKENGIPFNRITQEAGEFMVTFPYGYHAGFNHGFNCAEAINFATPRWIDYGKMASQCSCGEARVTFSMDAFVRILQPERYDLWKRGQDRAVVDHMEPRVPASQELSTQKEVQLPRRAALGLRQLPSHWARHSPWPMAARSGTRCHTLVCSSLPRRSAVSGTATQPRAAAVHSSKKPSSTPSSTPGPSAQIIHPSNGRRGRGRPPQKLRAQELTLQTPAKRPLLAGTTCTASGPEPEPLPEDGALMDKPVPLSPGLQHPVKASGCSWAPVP

[15] = biological target: Prostaglandin G/H synthase 2 (Homo sapiens, UniProt P35354); assay: Inhibition of human COX-2 by FLINT assay
Prostaglandin G/H synthase 2, sequence (P35354 whole entry): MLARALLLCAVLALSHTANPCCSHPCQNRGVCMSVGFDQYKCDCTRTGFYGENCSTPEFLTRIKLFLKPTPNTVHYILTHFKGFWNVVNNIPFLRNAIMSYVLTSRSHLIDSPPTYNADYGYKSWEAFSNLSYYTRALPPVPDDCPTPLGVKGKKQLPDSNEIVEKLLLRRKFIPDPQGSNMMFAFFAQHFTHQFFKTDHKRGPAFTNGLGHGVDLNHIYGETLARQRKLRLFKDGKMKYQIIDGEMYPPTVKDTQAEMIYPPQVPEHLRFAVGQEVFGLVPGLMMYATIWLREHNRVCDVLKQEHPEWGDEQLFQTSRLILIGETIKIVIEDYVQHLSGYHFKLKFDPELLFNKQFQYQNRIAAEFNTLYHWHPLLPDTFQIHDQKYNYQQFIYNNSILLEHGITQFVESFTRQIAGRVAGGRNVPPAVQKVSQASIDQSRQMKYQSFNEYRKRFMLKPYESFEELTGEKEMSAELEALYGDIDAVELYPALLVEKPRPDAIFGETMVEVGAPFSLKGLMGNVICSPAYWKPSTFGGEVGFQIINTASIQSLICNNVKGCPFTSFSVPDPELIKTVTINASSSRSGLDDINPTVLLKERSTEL

Histone deacetylase 3 = Histone deacetylase 3 (Homo sapiens, UniProt O15379); assay: Inhibition of human HDAC3 by FLINT assay
Histone deacetylase 5 = Histone deacetylase 5 (Homo sapiens, UniProt Q9UQL6); assay: Inhibition of human HDAC5 by FLINT assay
Histone deacetylase 7 = Histone deacetylase 7 (Homo sapiens, UniProt Q8WUI4); assay: Inhibition of human HDAC7 by FLINT assay
Histone deacetylase 7, sequence (Q8WUI4 whole entry): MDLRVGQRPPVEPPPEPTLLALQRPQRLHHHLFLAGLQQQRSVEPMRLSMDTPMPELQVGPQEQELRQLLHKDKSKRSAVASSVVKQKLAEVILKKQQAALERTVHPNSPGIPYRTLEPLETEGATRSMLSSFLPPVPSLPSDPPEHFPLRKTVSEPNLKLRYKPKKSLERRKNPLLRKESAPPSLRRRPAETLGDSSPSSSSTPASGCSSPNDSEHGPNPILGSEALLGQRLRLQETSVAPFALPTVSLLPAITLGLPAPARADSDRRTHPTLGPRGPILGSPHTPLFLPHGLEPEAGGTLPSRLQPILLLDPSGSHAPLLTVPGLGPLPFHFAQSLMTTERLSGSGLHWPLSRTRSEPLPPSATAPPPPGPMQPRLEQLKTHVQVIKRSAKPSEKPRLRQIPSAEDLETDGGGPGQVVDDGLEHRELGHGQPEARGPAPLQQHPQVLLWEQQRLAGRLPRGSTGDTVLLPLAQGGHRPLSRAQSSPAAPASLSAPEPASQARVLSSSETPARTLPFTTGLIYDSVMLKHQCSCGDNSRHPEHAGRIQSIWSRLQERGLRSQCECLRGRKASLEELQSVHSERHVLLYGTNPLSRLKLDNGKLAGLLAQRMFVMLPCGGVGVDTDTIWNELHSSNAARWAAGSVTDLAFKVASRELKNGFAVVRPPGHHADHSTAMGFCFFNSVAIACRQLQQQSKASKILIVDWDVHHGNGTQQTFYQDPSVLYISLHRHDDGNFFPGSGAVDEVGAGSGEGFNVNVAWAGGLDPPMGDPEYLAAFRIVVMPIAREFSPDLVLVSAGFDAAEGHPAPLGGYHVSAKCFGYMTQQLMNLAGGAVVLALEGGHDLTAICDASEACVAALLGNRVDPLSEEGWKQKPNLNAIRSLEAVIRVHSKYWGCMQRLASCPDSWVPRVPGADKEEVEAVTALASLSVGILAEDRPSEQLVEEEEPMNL

Histone deacetylase 11 = Histone deacetylase 11 (Homo sapiens, UniProt Q96DB2); assay: Inhibition of human HDAC11 by FLINT assay
[16] = biological target: T1, 5-hydroxytryptamine receptor 2C (Homo sapiens, UniProt P28335); assay: Antagonist activity at human 5-HT2C by intracellular Ca luminescence assay; type: functional, cell-based
T1 sequence (P28335 whole entry): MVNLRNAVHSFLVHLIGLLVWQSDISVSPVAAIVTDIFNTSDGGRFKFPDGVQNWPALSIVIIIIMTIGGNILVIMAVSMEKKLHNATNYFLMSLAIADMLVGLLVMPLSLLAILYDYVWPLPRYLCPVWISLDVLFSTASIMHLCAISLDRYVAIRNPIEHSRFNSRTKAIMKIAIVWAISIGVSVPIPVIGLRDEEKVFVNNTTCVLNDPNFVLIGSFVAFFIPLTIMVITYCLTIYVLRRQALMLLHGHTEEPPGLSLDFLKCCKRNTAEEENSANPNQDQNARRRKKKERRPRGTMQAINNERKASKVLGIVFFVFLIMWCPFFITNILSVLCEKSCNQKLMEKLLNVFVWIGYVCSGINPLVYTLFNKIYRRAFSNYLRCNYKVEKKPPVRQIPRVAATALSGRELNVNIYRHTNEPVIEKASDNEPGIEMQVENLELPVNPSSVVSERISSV

[17] = biological target: Alpha-2C adrenergic receptor (Homo sapiens, UniProt P18825); assay: Agonist activity at human alpha 2C adrenoceptor by TR-FRET assay
D(1A) dopamine receptor = D(1A) dopamine receptor (Homo sapiens, UniProt P21728); assay: Antagonist activity at human dopamine 1 receptor by TR-FRET assay; type: functional
D(1A) dopamine receptor, sequence (P21728 whole entry): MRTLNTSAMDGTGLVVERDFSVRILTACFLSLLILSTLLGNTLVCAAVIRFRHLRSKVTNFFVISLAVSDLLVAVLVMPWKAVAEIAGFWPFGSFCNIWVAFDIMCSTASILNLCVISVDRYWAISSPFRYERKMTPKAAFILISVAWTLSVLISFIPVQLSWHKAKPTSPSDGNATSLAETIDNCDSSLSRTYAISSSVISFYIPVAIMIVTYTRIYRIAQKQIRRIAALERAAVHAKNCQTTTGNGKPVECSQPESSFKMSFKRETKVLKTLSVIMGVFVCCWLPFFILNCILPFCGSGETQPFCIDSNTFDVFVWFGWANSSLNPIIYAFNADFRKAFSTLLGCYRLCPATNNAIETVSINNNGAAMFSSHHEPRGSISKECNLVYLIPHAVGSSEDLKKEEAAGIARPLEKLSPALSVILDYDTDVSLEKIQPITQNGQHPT

[18] = biological target: T2, Muscarinic acetylcholine receptor M1 (Homo sapiens, UniProt P11229); assay: Agonist activity at human CHRM1 by intracellular Ca fluorescence assay; type: functional, cell-based
T2 sequence (P11229 whole entry): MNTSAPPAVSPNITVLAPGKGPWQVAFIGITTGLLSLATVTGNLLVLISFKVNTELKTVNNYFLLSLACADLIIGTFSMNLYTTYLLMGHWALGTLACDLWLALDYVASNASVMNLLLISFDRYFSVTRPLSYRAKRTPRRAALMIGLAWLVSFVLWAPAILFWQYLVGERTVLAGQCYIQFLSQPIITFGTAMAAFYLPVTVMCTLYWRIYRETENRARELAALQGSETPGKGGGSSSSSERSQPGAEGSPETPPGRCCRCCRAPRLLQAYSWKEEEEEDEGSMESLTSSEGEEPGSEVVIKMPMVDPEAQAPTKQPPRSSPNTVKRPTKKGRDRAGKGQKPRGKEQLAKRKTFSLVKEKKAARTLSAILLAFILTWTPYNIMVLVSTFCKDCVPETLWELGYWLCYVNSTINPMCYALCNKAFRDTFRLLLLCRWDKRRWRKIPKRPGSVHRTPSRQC

[19] = biological target: T3, Kappa-type opioid receptor (Homo sapiens, UniProt P41145); assay: Agonist activity at human OPRK-1 by SPA; type: functional
T3 sequence (P41145 whole entry): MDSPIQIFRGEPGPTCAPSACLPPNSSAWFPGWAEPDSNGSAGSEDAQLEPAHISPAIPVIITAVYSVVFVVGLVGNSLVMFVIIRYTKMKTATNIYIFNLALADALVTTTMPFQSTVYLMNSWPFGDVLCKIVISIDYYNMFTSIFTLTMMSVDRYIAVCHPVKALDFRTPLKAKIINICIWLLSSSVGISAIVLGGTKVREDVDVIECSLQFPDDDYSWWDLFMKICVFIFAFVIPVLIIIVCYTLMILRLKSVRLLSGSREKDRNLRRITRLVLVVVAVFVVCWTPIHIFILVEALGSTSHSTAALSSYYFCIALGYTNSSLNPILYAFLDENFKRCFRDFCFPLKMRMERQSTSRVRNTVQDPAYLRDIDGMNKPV

[20] = biological target: T3, Kappa-type opioid receptor; assay: Antagonist activity at human OPRK-1 by SPA; type: functional
hERG (KCNH2) [21] = biological target: T4, hERG (KCNH2) (Homo sapiens, UniProt Q12809); assay: Binding affinity to human ERG by FP binding assay; type: toxicity
T4 sequence (Q12809 whole entry): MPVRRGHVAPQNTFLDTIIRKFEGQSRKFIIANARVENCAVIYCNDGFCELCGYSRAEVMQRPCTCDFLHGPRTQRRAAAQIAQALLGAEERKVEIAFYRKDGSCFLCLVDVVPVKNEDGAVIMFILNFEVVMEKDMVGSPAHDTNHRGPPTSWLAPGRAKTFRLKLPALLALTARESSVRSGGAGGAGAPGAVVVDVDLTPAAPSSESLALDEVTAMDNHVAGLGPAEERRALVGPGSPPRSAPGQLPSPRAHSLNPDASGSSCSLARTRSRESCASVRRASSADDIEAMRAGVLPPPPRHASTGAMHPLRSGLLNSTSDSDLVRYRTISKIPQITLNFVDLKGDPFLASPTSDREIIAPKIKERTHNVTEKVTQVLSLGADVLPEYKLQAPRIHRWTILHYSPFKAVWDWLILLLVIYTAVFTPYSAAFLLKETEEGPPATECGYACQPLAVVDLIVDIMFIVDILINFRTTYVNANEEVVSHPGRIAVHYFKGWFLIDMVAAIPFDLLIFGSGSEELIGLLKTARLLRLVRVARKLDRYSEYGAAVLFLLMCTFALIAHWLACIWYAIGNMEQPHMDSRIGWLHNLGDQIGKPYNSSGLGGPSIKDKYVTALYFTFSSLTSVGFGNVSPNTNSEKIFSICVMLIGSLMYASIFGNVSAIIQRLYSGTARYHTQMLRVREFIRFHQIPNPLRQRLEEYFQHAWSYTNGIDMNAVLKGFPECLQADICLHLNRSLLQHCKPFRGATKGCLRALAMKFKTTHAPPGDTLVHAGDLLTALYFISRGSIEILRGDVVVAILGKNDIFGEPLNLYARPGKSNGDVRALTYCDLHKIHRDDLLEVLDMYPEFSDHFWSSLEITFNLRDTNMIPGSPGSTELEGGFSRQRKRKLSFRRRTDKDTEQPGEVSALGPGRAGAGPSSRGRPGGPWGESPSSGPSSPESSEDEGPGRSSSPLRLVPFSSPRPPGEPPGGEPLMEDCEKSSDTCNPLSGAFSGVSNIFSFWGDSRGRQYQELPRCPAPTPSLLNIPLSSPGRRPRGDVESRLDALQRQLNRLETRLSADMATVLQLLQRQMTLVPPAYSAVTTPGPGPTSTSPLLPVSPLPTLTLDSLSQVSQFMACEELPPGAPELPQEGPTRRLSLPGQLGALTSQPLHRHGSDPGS

hERG (KCNH2) [22] = biological target: T4, hERG (KCNH2); assay: Blockade of human KCNH2 by electrophysiology assay; type: toxicity
[23] = biological target: Aryl hydrocarbon receptor (Homo sapiens, UniProt P35869); assay: Agonist activity at human AhR by TR-FRET assay
Aryl hydrocarbon receptor, sequence (P35869 whole entry): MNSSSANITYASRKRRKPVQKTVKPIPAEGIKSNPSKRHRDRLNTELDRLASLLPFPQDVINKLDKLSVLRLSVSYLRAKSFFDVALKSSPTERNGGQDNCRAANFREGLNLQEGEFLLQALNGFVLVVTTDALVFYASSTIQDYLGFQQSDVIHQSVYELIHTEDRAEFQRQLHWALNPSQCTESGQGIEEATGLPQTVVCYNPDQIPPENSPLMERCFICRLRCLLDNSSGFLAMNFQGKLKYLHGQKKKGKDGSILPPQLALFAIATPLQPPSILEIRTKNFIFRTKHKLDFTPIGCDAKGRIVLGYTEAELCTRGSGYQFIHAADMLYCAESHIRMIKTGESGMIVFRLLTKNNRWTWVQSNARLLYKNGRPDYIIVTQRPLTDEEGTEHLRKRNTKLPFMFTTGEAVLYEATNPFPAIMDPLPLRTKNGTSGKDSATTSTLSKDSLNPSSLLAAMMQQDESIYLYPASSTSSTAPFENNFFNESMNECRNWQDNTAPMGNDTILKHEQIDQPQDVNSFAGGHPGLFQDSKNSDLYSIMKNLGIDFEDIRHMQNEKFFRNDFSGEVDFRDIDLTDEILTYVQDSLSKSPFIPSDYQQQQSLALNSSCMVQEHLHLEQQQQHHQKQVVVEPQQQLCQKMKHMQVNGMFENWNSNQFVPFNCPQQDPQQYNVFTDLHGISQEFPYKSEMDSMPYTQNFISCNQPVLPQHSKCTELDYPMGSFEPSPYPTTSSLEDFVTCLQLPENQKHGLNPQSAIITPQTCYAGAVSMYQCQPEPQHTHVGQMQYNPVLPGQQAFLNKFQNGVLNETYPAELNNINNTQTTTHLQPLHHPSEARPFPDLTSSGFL

PXR (NR1I2) = PXR (NR1I2) (Homo sapiens, UniProt O75469); assay: Agonist activity at human PXR by luciferase reporter assay

CCOC(=O)CCNc1cc(N2CCc3ccccc3CC2)nc(-c2ccccn2)n1
Activity (Macrophage [1]): 293 a.u. | Activity (Macrophage [2]): 19 a.u. | Activity (Macrophage [3]): 31 a.u. | Activity (Macrophage [4]): 59 a.u. | Activity (Macrophage [5]): 1012 a.u. | Activity (Macrophage [6]): 304 a.u. | Activity (Macrophage [7]): 4562 a.u. | Activity (Macrophage [8]): 170309 a.u. | Activity (Macrophage [9]): 1556795 a.u. | Activity (Macrophage [10]): 5493 a.u. | Activity (Macrophage [11]): 3422 a.u. | Activity (Macrophage [12]): 18715 a.u. | Activity (Macrophage [13]): Non-Toxic

O=C(O)CCNc1cc(N2CCc3ccccc3CC2)nc(-c2ccccn2)n1
IC50 [14]: 79 µM | XC50 [15]: > 63 µM | XC50 (Histone deacetylase 3): > 300 µM | XC50 (Histone deacetylase 5): > 300 µM | XC50 (Histone deacetylase 7): > 300 µM | XC50 (Histone deacetylase 11): > 300 µM | XC50 [16]: > 40 µM | XC50 [17]: > 32 µM | XC50 (D(1A) dopamine receptor): > 32 µM | XC50 [18]: > 16 µM | XC50 [19]: > 100 µM | XC50 [20]: 50 µM | XC50 (hERG (KCNH2) [21]): 32 µM | XC50 (hERG (KCNH2) [22]): 8 µM | XC50 [23]: > 100 µM | XC50 (PXR (NR1I2)): > 50 µM | Activity (Macrophage [13]): Non-Toxic

O=C(O)CCNc1cc(N2CCc3ccccc3CC2)nc(-c2cccnc2)n1
IC50 [14]: > 100 µM | XC50 [15]: > 63 µM | XC50 (Histone deacetylase 3): > 300 µM | XC50 (Histone deacetylase 5): > 300 µM | XC50 (Histone deacetylase 7): > 300 µM | XC50 (Histone deacetylase 11): > 300 µM | XC50 [16]: > 40 µM | XC50 [17]: > 32 µM | XC50 (D(1A) dopamine receptor): > 32 µM | XC50 [18]: > 16 µM | XC50 [19]: > 100 µM | XC50 [20]: 50 µM | XC50 (hERG (KCNH2) [21]): > 100 µM | XC50 (hERG (KCNH2) [22]): > 50 µM | XC50 [23]: 0.32 µM | XC50 (PXR (NR1I2)): 10 µM | Activity (Macrophage [13]): Non-Toxic

CCOC(=O)CCNc1cc(N2CCc3ccccc3CC2)nc(-c2cccnc2)n1
Activity (Macrophage [1]): 1399 a.u. | Activity (Macrophage [2]): 45 a.u. | Activity (Macrophage [3]): 110 a.u. | Activity (Macrophage [4]): 151 a.u. | Activity (Macrophage [5]): 431 a.u. | Activity (Macrophage [6]): 5021 a.u. | Activity (Macrophage [7]): 40115 a.u. | Activity (Macrophage [8]): 815450 a.u. | Activity (Macrophage [9]): 5618140 a.u. | Activity (Macrophage [10]): 5856 a.u. | Activity (Macrophage [11]): 4816 a.u. | Activity (Macrophage [12]): 22792 a.u. | Activity (Macrophage [13]): Non-Toxic
